#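 Method: 48-hour compound exposure of cells in 96-well plates, five concentrations, linear interpolation of endpoints. GI50 is the concentration that inhibits growth by half. The concentration for full growth arrest is given as TGI.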
# Key:
# Assay in all cases: NCI anticancer screen, dose series, 48 h
# HOP-62 NSCLC = test system: HOP-62 NSCLC
# SF-295 CNS = test system: SF-295 CNS
# MDA-MB-231 breast = test system: MDA-MB-231 breast
# COLO 205 colon = test system: COLO 205 colon
# RPMI-8226 leukemia = test system: RPMI-8226 leukemia
# MALME-3M melanoma = test system: MALME-3M melanoma
# SK-MEL-2 melanoma = test system: SK-MEL-2 melanoma
# SK-OV-3 ovarian = test system: SK-OV-3 ovarian
# SN12C renal = test system: SN12C renal
# SF-539 CNS = test system: SF-539 CNS
# PC-3 prostate = test system: PC-3 prostate
# KM12 colon = test system: KM12 colon
# SW-620 colon = test system: SW-620 colon
# NCI-H460 lung = test system: NCI-H460 lung
# EKVX NSCLC = test system: EKVX NSCLC
# BT-549 breast = test system: BT-549 breast
# NCI-H23 lung = test system: NCI-H23 lung
# SK-MEL-28 melanoma = test system: SK-MEL-28 melanoma
# UO-31 renal = test system: UO-31 renal
# NCI-H522 lung = test system: NCI-H522 lung
# HOP-92 NSCLC = test system: HOP-92 NSCLC
# MOLT-4 leukemia = test system: MOLT-4 leukemia
# OVCAR-5 ovarian = test system: OVCAR-5 ovarian
# UACC-257 melanoma = test system: UACC-257 melanoma
# SF-268 CNS = test system: SF-268 CNS
# SNB-19 CNS = test system: SNB-19 CNS
# HS 578T breast = test system: HS 578T breast
# TK-10 renal = test system: TK-10 renal
# K-562 leukemia = test system: K-562 leukemia
# A498 renal = test system: A498 renal
# HL-60(TB) leukemia = test system: HL-60(TB) leukemia
# SK-MEL-5 melanoma = test system: SK-MEL-5 melanoma
# HCC-2998 colon = test system: HCC-2998 colon
# MDA-MB-435 = test system: MDA-MB-435
# RXF 393 renal = test system: RXF 393 renal
# NCI-H226 lung = test system: NCI-H226 lung
# U251 CNS = test system: U251 CNS
# NCI/ADR-RES ovarian = test system: NCI/ADR-RES ovarian
# DU-145 prostate = test system: DU-145 prostate
# CAKI-1 renal = test system: CAKI-1 renal
# SR leukemia = test system: SR leukemia
# OVCAR-4 ovarian = test system: OVCAR-4 ovarian
# M14 melanoma = test system: M14 melanoma
# LOX IMVI melanoma = test system: LOX IMVI melanoma
# HCT-116 colon = test system: HCT-116 colon
# 786-0 renal = test system: 786-0 renal
# MCF7 breast = test system: MCF7 breast
# CCRF-CEM leukemia = test system: CCRF-CEM leukemia
# ACHN renal = test system: ACHN renal
# IGROV1 ovarian = test system: IGROV1 ovarian
# SNB-75 CNS = test system: SNB-75 CNS
# HCT-15 colon = test system: HCT-15 colon
# OVCAR-8 ovarian = test system: OVCAR-8 ovarian
# A549 NSCLC = test system: A549 NSCLC
# UACC-62 melanoma = test system: UACC-62 melanoma
# HT29 colon = test system: HT29 colon
# T-47D breast = test system: T-47D breast
structure (smiles),measurement,setting,value
Oc1ccc(-c2nnc(SCc3ccc(O)c4ncccc34)o2)cc1,GI50,HOP-62 NSCLC,543 nM
same,TGI,HOP-62 NSCLC,7590 nM
same,GI50,SF-295 CNS,978 nM
same,TGI,SF-295 CNS,10600 nM
same,GI50,MDA-MB-231 breast,1960 nM
same,TGI,MDA-MB-231 breast,14700 nM
same,GI50,COLO 205 colon,3060 nM
same,TGI,COLO 205 colon,11400 nM
same,GI50,RPMI-8226 leukemia,544 nM
same,TGI,RPMI-8226 leukemia,> 100000 nM
same,GI50,MALME-3M melanoma,1960 nM
same,TGI,MALME-3M melanoma,17600 nM
same,GI50,SK-MEL-2 melanoma,587 nM
same,TGI,SK-MEL-2 melanoma,6910 nM
same,GI50,SK-OV-3 ovarian,1770 nM
same,TGI,SK-OV-3 ovarian,6540 nM
same,GI50,SN12C renal,417 nM
same,TGI,SN12C renal,> 38500 nM
same,GI50,SF-539 CNS,666 nM
same,TGI,SF-539 CNS,15000 nM
same,GI50,PC-3 prostate,584 nM
same,TGI,PC-3 prostate,> 100000 nM
same,GI50,KM12 colon,1560 nM
same,TGI,KM12 colon,> 100000 nM
same,GI50,SW-620 colon,680 nM
same,TGI,SW-620 colon,> 100000 nM
same,GI50,NCI-H460 lung,364 nM
same,TGI,NCI-H460 lung,5090 nM
same,GI50,EKVX NSCLC,2630 nM
same,TGI,EKVX NSCLC,11300 nM
same,GI50,BT-549 breast,444 nM
same,TGI,BT-549 breast,21200 nM
same,GI50,NCI-H23 lung,527 nM
same,TGI,NCI-H23 lung,11600 nM
same,GI50,SK-MEL-28 melanoma,2080 nM
same,TGI,SK-MEL-28 melanoma,> 100000 nM
same,GI50,UO-31 renal,1350 nM
same,TGI,UO-31 renal,6440 nM
same,GI50,NCI-H522 lung,402 nM
same,TGI,NCI-H522 lung,20500 nM
same,GI50,HOP-92 NSCLC,219 nM
same,TGI,HOP-92 NSCLC,747 nM
same,GI50,MOLT-4 leukemia,1260 nM
same,TGI,MOLT-4 leukemia,> 100000 nM
same,GI50,OVCAR-5 ovarian,3330 nM
same,TGI,OVCAR-5 ovarian,> 100000 nM
same,GI50,UACC-257 melanoma,2530 nM
same,TGI,UACC-257 melanoma,7890 nM
same,GI50,SF-268 CNS,658 nM
same,TGI,SF-268 CNS,35300 nM
same,GI50,SNB-19 CNS,450 nM
same,TGI,SNB-19 CNS,38200 nM
same,GI50,HS 578T breast,388 nM
same,TGI,HS 578T breast,> 22300 nM
same,GI50,TK-10 renal,2250 nM
same,TGI,TK-10 renal,7840 nM
same,GI50,K-562 leukemia,418 nM
same,TGI,K-562 leukemia,> 100000 nM
same,GI50,A498 renal,2370 nM
same,TGI,A498 renal,7490 nM
same,GI50,HL-60(TB) leukemia,1390 nM
same,TGI,HL-60(TB) leukemia,6190 nM
same,GI50,SK-MEL-5 melanoma,854 nM
same,TGI,SK-MEL-5 melanoma,> 22800 nM
same,GI50,HCC-2998 colon,3220 nM
same,TGI,HCC-2998 colon,> 68800 nM
same,GI50,MDA-MB-435,418 nM
same,TGI,MDA-MB-435,> 100000 nM
same,GI50,RXF 393 renal,1430 nM
same,TGI,RXF 393 renal,34300 nM
same,GI50,NCI-H226 lung,3130 nM
same,TGI,NCI-H226 lung,> 100000 nM
same,GI50,U251 CNS,386 nM
same,TGI,U251 CNS,13700 nM
same,GI50,NCI/ADR-RES ovarian,1540 nM
same,TGI,NCI/ADR-RES ovarian,> 73700 nM
same,GI50,DU-145 prostate,582 nM
same,TGI,DU-145 prostate,28900 nM
same,GI50,CAKI-1 renal,2260 nM
same,TGI,CAKI-1 renal,8840 nM
same,GI50,SR leukemia,1100 nM
same,TGI,SR leukemia,> 100000 nM
same,GI50,OVCAR-4 ovarian,3410 nM
same,TGI,OVCAR-4 ovarian,> 100000 nM
same,GI50,M14 melanoma,544 nM
same,TGI,M14 melanoma,3880 nM
same,GI50,LOX IMVI melanoma,406 nM
same,TGI,LOX IMVI melanoma,11900 nM
same,GI50,HCT-116 colon,379 nM
same,TGI,HCT-116 colon,26300 nM
same,GI50,786-0 renal,2640 nM
same,TGI,786-0 renal,9550 nM
same,GI50,MCF7 breast,721 nM
same,TGI,MCF7 breast,> 100000 nM
same,GI50,CCRF-CEM leukemia,833 nM
same,TGI,CCRF-CEM leukemia,> 100000 nM
same,GI50,ACHN renal,1080 nM
same,TGI,ACHN renal,10100 nM
same,GI50,IGROV1 ovarian,2230 nM
same,TGI,IGROV1 ovarian,13200 nM
same,GI50,SNB-75 CNS,898 nM
same,TGI,SNB-75 CNS,8400 nM
same,GI50,HCT-15 colon,510 nM
same,TGI,HCT-15 colon,> 100000 nM
same,GI50,OVCAR-8 ovarian,440 nM
same,TGI,OVCAR-8 ovarian,> 40000 nM
same,GI50,A549 NSCLC,839 nM
same,TGI,A549 NSCLC,> 31100 nM
same,GI50,UACC-62 melanoma,2430 nM
same,TGI,UACC-62 melanoma,7100 nM
same,GI50,HT29 colon,3570 nM
same,TGI,HT29 colon,> 100000 nM
same,GI50,T-47D breast,2430 nM
same,TGI,T-47D breast,9390 nM

# Reference: PubChem BioAssay (NCI)
